# Counter-ions that a name gives are not always drawn.
# Tests used:
# human α-thrombin = target: T1, human α-thrombin (Homo sapiens, UniProt P00734); test: Enzymatic assay for thrombin (fluorogenic peptide substrate Boc-VPR-AMC); type: biochemical
# T1 construct: enzyme (human α-thrombin (BioPharm® Lab.)) in assay buffer; purchased BioPharm® Lab
# Procedure, shortened: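 Assay conditions kept the reaction linear in time, enzyme and substrate, so IC50 approximated Ki apart from tight- or slow-binding cases. Boc-VPR-AMC cleavage by human α-thrombin proceeded 20 min at room temperature in Hepes pH 7.4/NaCl/Tween 20 buffer, then was acid-quenched and read by fluorescence.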
# MASP-2 (CCP1-CCP2-SP) = target: T2, MASP-2 (CCP1-CCP2-SP) (Homo sapiens, UniProt O00187); test: Enzymatic assay for MASP-2 inhibitory activity (fluorogenic substrate); type: biochemical
# T2 construct: 15 μL of Enzyme MASP-2 (CCP1-CCP2-SP) in Assay Buffer
# Procedure, shortened: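 Fluorescence was normalized between no-enzyme and DMSO-only controls to derive % activity, with IC50 taken as equivalent to Ki except for tight-binding inhibitors. Reactions ran 20 min at room temperature in HEPES pH 7.4/NaCl/Tween 20 buffer, using the C2-derived fluorogenic substrate, before acetic acid stop.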
# T2 sequence (O00187 445-686 limits assumed): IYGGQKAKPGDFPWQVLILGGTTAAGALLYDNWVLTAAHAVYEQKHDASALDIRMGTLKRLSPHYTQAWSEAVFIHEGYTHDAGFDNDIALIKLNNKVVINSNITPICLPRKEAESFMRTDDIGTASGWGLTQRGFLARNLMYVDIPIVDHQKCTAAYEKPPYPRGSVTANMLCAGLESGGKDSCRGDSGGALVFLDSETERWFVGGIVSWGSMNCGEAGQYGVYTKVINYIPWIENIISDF
# T2 sequence (O00187 287-444 partner limits assumed): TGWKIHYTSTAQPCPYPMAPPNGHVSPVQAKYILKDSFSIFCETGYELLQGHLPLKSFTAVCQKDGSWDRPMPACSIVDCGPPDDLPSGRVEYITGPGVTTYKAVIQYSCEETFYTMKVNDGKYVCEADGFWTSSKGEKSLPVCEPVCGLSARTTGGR
Ki (human α-thrombin) [nM],Ki (MASP-2 (CCP1-CCP2-SP)) [nM],SMILES
2500 to 10000,< 500,Cc1nc(N)ccc1CNC(=O)C1CCc2c(Cl)nc(NCc3cncnc3)c(=O)n21 (centres unmarked) [Compound 150]
500 to 2500,< 500,"CC[C@H]1C[C@@H](C(=O)NCc2cc3cnccc3[nH]2)n2c1cnc(NCc1ccccc1)c2=O [Compound 151, (6S,8S)—N-((1H-pyrrolo[3,2-c]pyridin-2-yl)methyl)-3-(benzylamino)-8-ethyl-4-oxo-4,6,7,8-tetrahydropyrrolo[1,2-a]pyrazine-6-carboxamide]"
2500 to 10000,< 500,"C[C@H]1C[C@@H](C(=O)NCc2cc3cnccc3[nH]2)n2c1cnc(NCc1ccccc1)c2=O [Compound 152, (6S,8S)-N-((1H-pyrrolo[3,2-c]pyridin-2-yl)methyl)-3-(benzylamino)-8-methyl-4-oxo-4,6,7,8-tetrahydropyrrolo[1,2-a]pyrazine-6-carboxamide]"
< 500,< 500,"CC[C@H]1C[C@@H](C(=O)NCc2ccc(N)nc2C)n2c1cnc(NCc1ccccc1)c2=O [Compound 154, (6S,8S)-N-((6-amino-2-methylpyridin-3-yl)methyl)-3-(benzylamino)-8-ethyl-4-oxo-4,6,7,8-tetrahydropyrrolo[1,2-a]pyrazine-6-carboxamide]"
< 500,< 500,"CC[C@H]1C[C@@H](C(=O)NCc2ccc(N)nc2)n2c1cnc(NCc1cc(C)cc(C)c1)c2=O [Compound 157, (6S,8S)-N-((6-aminopyridin-3-yl)methyl)-3-((3,5-dimethylbenzyl)amino)-8-ethyl-4-oxo-4,6,7,8-tetrahydropyrrolo[1,2-a]pyrazine-6-carboxamide]"
10000 to 25000,< 500,"CC[C@H]1C[C@@H](C(=O)NCc2cc3cnccc3[nH]2)n2c1c(Cl)nc(NCc1ccccc1)c2=O [Compound 159, (6S,8S)—N-((1H-pyrrolo[3,2-c]pyridin-2-yl)methyl)-3-(benzylamino)-1-chloro-8-ethyl-4-oxo-4,6,7,8-tetrahydropyrrolo[1,2-a]pyrazine-6-carboxamide]"
> 25000,< 500,"CC[C@H]1C[C@@H](C(=O)NCc2cc3cnccc3[nH]2)n2c1c(Cl)nc(NCc1cc(C)cc(C)c1)c2=O [Compound 160, (6S,8S)-N-((1H-pyrrolo[3,2-c]pyridin-2-yl)methyl)-1-chloro-3-((3,5-dimethylbenzyl)amino)-8-ethyl-4-oxo-4,6,7,8-tetrahydropyrrolo[1,2-a]pyrazine-6-carboxamide]"
500 to 2500,< 500,"CC[C@H]1C[C@@H](C(=O)NCc2cc3c(s2)CNC3)n2c1cnc(NCc1ccccc1)c2=O [Compound 161, (6S,8S)-3-(benzylamino)-N-((5,6-dihydro-4H-thieno[2,3-c]pyrrol-2-yl)methyl)-8-ethyl-4-oxo-4,6,7,8-tetrahydropyrrolo[1,2-a]pyrazine-6-carboxamide hydrochloride]"
< 500,< 500,"Cc1cc(F)cc(CNc2ncc3n(c2=O)[C@@H](C(=O)NCc2ccc(N)nc2C)CC3)c1 [Compound 163, (R)—N-((6-amino-2-methylpyridin-3-yl)methyl)-3-((3-fluoro-5-methylbenzyl)amino)-4-oxo-4,6,7,8-tetrahydropyrrolo[1,2-a]pyrazine-6-carboxamide]"
500 to 2500,< 500,"Cc1nc(N)ccc1CNC(=O)[C@@H]1CCc2cnc(NCc3cnn(-c4ccccc4)c3)c(=O)n21 [Compound 166, (S)—N-((6-amino-2-methylpyridin-3-yl)methyl)-4-oxo-3-(((1-phenyl-1h-pyrazol-4-yl)methyl)amino)-4,6,7,8-tetrahydropyrrolo[1,2-a]pyrazine-6-carboxamide trifluoroacetate]"
500 to 2500,< 500,"Cc1nc(N)ccc1CNC(=O)[C@@H]1CCc2cnc(NCc3cnn(C)c3)c(=O)n21 [Compound 167, (S)-N-((6-amino-2-methylpyridin-3-yl)methyl)-3-(((1-methyl-1H-pyrazol-4-yl)methyl)amino)-4-oxo-4,6,7,8-tetrahydropyrrolo[1,2-a]pyrazine-6-carboxamide trifluoroacetate]"
< 500,< 500,"Cc1nc(N)ccc1CNC(=O)[C@@H]1CCc2cnc(NCc3nn(C)c4ccccc34)c(=O)n21 [Compound 170, (S)-N-((6-amino-2-methylpyridin-3-yl)methyl)-3-(((1-methyl-1H-indazol-3-yl)methyl)amino)-4-oxo-4,6,7,8-tetrahydropyrrolo[1,2-a]pyrazine-6-carboxamide trifluoroacetate]"
< 500,< 500,"COc1cc(F)cc(CNc2ncc3n(c2=O)[C@H](C(=O)NCc2ccc(N)nc2C)CC3)c1 [Compound 171, (S)-N-((6-amino-2-methylpyridin-3-yl)methyl)-3-((3-fluoro-5-methoxybenzyl)amino)-4-oxo-4,6,7,8-tetrahydropyrrolo[1,2-a]pyrazine-6-carboxamide trifluoroacetate]"
< 500,< 500,Cc1nc(N)ccc1CNC(=O)[C@@H]1CCc2cnc(NCc3ccc4c(cnn4C)c3)c(=O)n21 [Compound 172]
> 25000,2500 to 10000,"Cc1cc(F)cc(CNc2ncc3n(c2=O)[C@H](C(=O)NCc2ccc([C@@H](C)N)cc2)CC3)c1 [Compound 173, (S)—N-(4-((R)-1-aminoethyl)benzyl)-3-((3-fluoro-5-methylbenzyl)amino)-4-oxo-4,6,7,8-tetrahydropyrrolo[1,2-a]pyrazine-6-carboxamide trifluoroacetate]"

# Further lines, the molecule ahead of its results:
SMILES,Ki (human α-thrombin) [nM],Ki (MASP-2 (CCP1-CCP2-SP)) [nM]
"Cc1nc(N)ccc1CNC(=O)C1CCc2c(Cl)nc(NCc3cnccn3)c(=O)n21 (centres unmarked) [Compound 149, N-((6-amino-2-methylpyridin-3-yl)methyl)-1-chloro-4-oxo-3-((pyrazin-2-ylmethyl)amino)-4,6,7,8-tetrahydropyrrolo[1,2-a]pyrazine-6-carboxamide]",2500 to 10000,< 500
"Cc1cc(C)cc(CNc2ncc3n(c2=O)[C@H](C(=O)NCc2cc4cnccc4[nH]2)C[C@@H]3C)c1 [Compound 153, (6S,8S)-N-((1H-pyrrolo[3,2-c]pyridin-2-yl)methyl)-3-((3,5-dimethylbenzyl)amino)-8-methyl-4-oxo-4,6,7,8-tetrahydropyrrolo[1,2-a]pyrazine-6-carboxamide]",2500 to 10000,< 500
"CC[C@H]1C[C@@H](C(=O)NCc2ccc(N)nc2C)n2c1cnc(NCc1cc(C)cc(C)c1)c2=O [Compound 156, (6S,8S)-N-((6-amino-2-methylpyridin-3-yl)methyl)-3-((3,5-dimethylbenzyl)amino)-8-ethyl-4-oxo-4,6,7,8-tetrahydropyrrolo[1,2-a]pyrazine-6-carboxamide]",< 500,< 500
"CC[C@H]1C[C@@H](C(=O)NCc2cc3c(s2)CNC3)n2c1c(Cl)nc(NCc1ccccc1)c2=O [Compound 158, (6S,8S)-3-(benzylamino)-1-chloro-N-((5,6-dihydro-4H-thieno[2,3-c]pyrrol-2-yl)methyl)-8-ethyl-4-oxo-4,6,7,8-tetrahydropyrrolo[1,2-a]pyrazine-6-carboxamide hydrochloride]",2500 to 10000,< 500
"O=C(NCc1cc2cnccc2[nH]1)[C@@H]1CCc2c(Cl)nc(NCc3ccc4c(c3)CCCC4)c(=O)n21 [Compound 162, (S)—N-((1H-pyrrolo[3,2-c]pyridin-2-yl)methyl)-1-chloro-4-oxo-3-(((5,6,7,8-tetrahydronaphthalen-2-yl)methyl)amino)-4,6,7,8-tetrahydropyrrolo[1,2-a]pyrazine-6-carboxamide]",> 25000,< 500
COc1cc(C)cc(CNc2ncc3n(c2=O)[C@@H](C(=O)NCc2cc4cnccc4[nH]2)CC3)c1 [Compound 164],2500 to 10000,< 500
"Cc1cc(F)cc(CNc2nc(Cl)c3n(c2=O)[C@H](C(=O)NCc2cnc4ccccn24)CC3)c1 [Compound 165, (S)-1-chloro-3-((3-fluoro-5-methylbenzyl)amino)-N-(imidazo[1,2-a]pyridin-3-ylmethyl)-4-oxo-4,6,7,8-tetrahydropyrrolo[1,2-a]pyrazine-6-carboxamide trifluoroacetate]",> 25000,10000 to 25000
"Cc1nc(N)ccc1CNC(=O)[C@@H]1CCc2cnc(NCc3cn4c(n3)CCCC4)c(=O)n21 [Compound 168, (S)-N-((6-amino-2-methylpyridin-3-yl)methyl)-4-oxo-3-(((5,6,7,8-tetrahydroimidazo[1,2-a]pyridin-2-yl)methyl)amino)-4,6,7,8-tetrahydropyrrolo[1,2-a]pyrazine-6-carboxamide trifluoroacetate]",2500 to 10000,500 to 2500
"Cc1nc(N)ccc1CNC(=O)[C@@H]1CCc2cnc(NCc3cccc(-n4cccn4)c3)c(=O)n21 [Compound 169, (S)-3-((3-(1H-pyrazol-1-yl)benzyl)amino)-N-((6-amino-2-methylpyridin-3-yl)methyl)-4-oxo-4,6,7,8-tetrahydropyrrolo[1,2-a]pyrazine-6-carboxamide trifluoroacetate]",< 500,< 500
"Cc1cc(F)cc(CNc2nc(-c3cnn(C)c3)c3n(c2=O)[C@H](C(=O)NCc2ccc(N)nc2C)CC3)c1 [Compound 174, (S)—N-((6-amino-2-methylpyridin-3-yl)methyl)-3-((3-fluoro-5-methylbenzyl)amino)-1-(1-methyl-1H-pyrazol-4-yl)-4-oxo-4,6,7,8-tetrahydropyrrolo[1,2-a]pyrazine-6-carboxamide trifluoroacetate]",> 25000,< 500

# Source: US20250122225A1, “MASP-2 INHIBITORS AND METHODS OF USE” (Omeros Corporation, priority 2023, published 2025)
